Experimental data published in patent publication US6419922B1, “Candida saitoana compositions for biocontrol of plant postharvest decay” (Biotechnology Research and Development Corporation, priority 1998, dated 2002).

Experiments:
P. expansum = test: Curative effect on established infection of apple fruit (treated 24 hours after inoculation); assay type: in vivo, Penicillium expansum; details: treatment 24 hours after inoculation
Procedure: (§1) Yeast cells from 48 hour old cultures of C. saitoana were pelleted by centrifugation, resuspended in sterile distilled water, and centrifuged. Pellets were suspended in water, 0.01% and 0.1% lysozyme of 0.6% lyticase, and the concentration of the yeast suspension was adjusted to 10^8 CFU/ml.
(§2) Apple, orange, and lemon fruit were individually wounded and each wound was treated with fifty microliters of one of the following treatments:
(§3) Fruit wounds were either treated with the different treatments and then inoculated with 20 μL of a pathogen spore suspension to determine protective effects, or inoculated with a pathogen spore suspension and 24 hours later were treated with the different treatments to determine curative effects. Apple wounds were inoculated (i.e., pathogens were placed in the wound) with the pathogens B. cinerea and P. expansum, whereas orange and lemon wounds were inoculated with P. digitatum. Treated fruit were incubated at 24° C. in plastic trays at high humidity. For each treatment, 20 to 100 fruit were arranged in a randomized complete block design. Percent infection was determined for each treatment after 7 days of storage. The tests were repeated twice. […] The effect was greater than for either agent alone.
(§4) In the past, the lack of curative activity has been identified as a major limitation of biological approaches to pathogen control.

Penicillium digitatum [1] = test: Protective effect on decay of wounded orange and lemon fruit, treated then challenge inoculated; assay type: in vivo; details: wounds treated then inoculated with 20 μL P. digitatum 10^4 conidia/ml, 7 days at 24° C.
Procedure: as §1, §2
yeast cell suspension (C. saitoana);
yeast cell suspension containing 0.01% or 0.1% lysozyme;
yeast cell suspension containing 0.6% lyticase;
as §3

P. digitatum = test: Curative effect on established infection of citrus fruit (treated 24 hours after inoculation); assay type: in vivo, Penicillium digitatum; details: treatment 24 hours after inoculation
Procedure: as §1, §2, §3, §4

Botrytis cinerea = test: Inhibition of spore germination in 24-well microtiter dish; assay type: cell-based; details: for Inhibition of Germination (%) Botrytis cinerea: five hundred spores per well, 0.2% maltose extract broth, 24° C., after 24 hours
Procedure: The inhibitory activity of antifungal enzymes, in this example, lysozyme and lyticase, against the pathogen Botrytis cinerea, was determined in a 24-well microtiter dish. Autoclaved solutions of 0.2% maltose extract broth were amended with membrane-sterilized solutions of lysozyme and lyticase to obtain a concentration of 0.1% and 0.5% of lysozyme and lyticase, respectively. One hundred microliters of the enzyme solution was dispensed into each well. Each well was inoculated with five hundred spores of B. cinerea. Four replicates of eight wells were used for each treatment. Microtiter dishes were incubated in the dark at 24° C. Percent spore germination was determined after 24 hours. Spores were inhibited by either enzyme.

Candida saitoana = test: Survival of Candida saitoana in enzyme solutions (yeast maltose broth); assay type: cell-based; details: for Yeast Cell Counts (CFU/ml) 1 day / Yeast Cell Counts (CFU/ml) 4 days: inoculated with 10^4 yeast cells/ml, yeast maltose broth
Procedure: The effect of lysozyme and lyticase on the survival of C. saitoana in yeast maltose broth was also determined. Culture flasks containing sterile solutions of 0.2% yeast maltose broth were amended with membrane-sterilized solutions of lysozyme and lyticase to obtain a concentration of 0.1% and 0.6% of lysozyme and lyticase, respectively. Each flask was started with approximately 10^4 colony forming units (CFU) of yeast and the flasks were incubated on an orbital shaker set at 200 rpm. Samples were collected and dilution-plated in duplicate on yeast-maltose agar medium. The plates were incubated 24° C. and colonies were counted after 48 h.

Penicillium digitatum [2] = test: Natural infection of orange and lemon fruit, semi-commercial on line spray treatment; assay type: in vivo; details: line spray within 48 hours after harvest, 50-55° F., after 3 weeks
Source text: Additional tests were also done to determine the effect of different combinations of biochemicals and microorganisms on natural infections of citrus fruit. Orange and lemon fruit from field bins were washed on line following standard commercial practices [Standard Pre Chlorine was (50 ppm); size and color blemish sorting, and randomized]. Thereafter the fruit was washed and treated with either water, a yeast cell suspension containing 0.1% lysozyme, or Imazalil using an on line spray system. Each treatment consisted of at least 8 to 13 boxes of fruit; each box representing a replicate of approximately 60 to 100 fruit. The fruit was held at 50-55° F. and the percentage of decay was determined after 3 weeks.

lysozyme
Effect on established infection caused by P. expansum (in words) (P. expansum): little effect
Infected Fruit (%) Penicillium digitatum Lemon (Penicillium digitatum [1]): 86b %
Infected Fruit (%) Penicillium digitatum Orange (Penicillium digitatum [1]): 88%
Infected Fruit (%) Penicillium digitatum Orange (Penicillium digitatum [1]; listed as 0.01% lysozyme): 88b %
Effect on established infection caused by P. digitatum (in words) (P. digitatum): little effect
Inhibitory activity against Botrytis cinerea spores (in words) (Botrytis cinerea): inhibitory
Inhibition of Germination (%) Botrytis cinerea (Botrytis cinerea): 100%
Effect on growth / survival of the yeast C. saitoana (in words) (Candida saitoana): no effect
Yeast Cell Counts (CFU/ml) 1 day (Candida saitoana): >2.0 × 10^5 CFU/ml
Yeast Cell Counts (CFU/ml) 4 days (Candida saitoana): >2.0 × 10^5 CFU/ml

C=CCOC(Cn1ccnc1)c1ccc(Cl)cc1Cl (stereo not shown) [Imazalil]
Infected Fruit (%) Penicillium digitatum Lemon (Penicillium digitatum [2]; lemon): 4.6b %
Infected Fruit (%) Penicillium digitatum Orange (Penicillium digitatum [2]; orange): 2.4b %

lyticase
Effect on established infection caused by P. expansum (in words) (P. expansum): little effect
Infected Fruit (%) Penicillium digitatum Lemon (Penicillium digitatum [1]): 85b %
Infected Fruit (%) Penicillium digitatum Orange (Penicillium digitatum [1]): 88%
Infected Fruit (%) Penicillium digitatum Orange (Penicillium digitatum [1]; listed as 0.1% lyticase): 88b %
Effect on established infection caused by P. digitatum (in words) (P. digitatum): little effect
Inhibitory activity against Botrytis cinerea spores (in words) (Botrytis cinerea): inhibitory
Inhibition of Germination (%) Botrytis cinerea (Botrytis cinerea): 100%
Effect on growth / survival of the yeast C. saitoana (in words) (Candida saitoana): no effect
Yeast Cell Counts (CFU/ml) 1 day (Candida saitoana): >2.0 × 10^5 CFU/ml
Yeast Cell Counts (CFU/ml) 4 days (Candida saitoana): >2.0 × 10^5 CFU/ml
